Data on 25 compounds can be found in US9296728B2, “Therapeutic compounds” (Regents of the University of Minnesota, priority 2012, dated 2016).

One series concerns the target MCT1 (Rattus norvegicus (Rat), UniProt P53987). The experiment in a line: Test A. MCT1 inhibition via lactate uptake in rat brain endothelial (RBE4) cells. Format: cell-based. The note with it: 14C-lactate uptake. Here is the method: Test A. MCT1 Inhibition Via Lactate Uptake Rat Brain Endothelial Cells
The entire lactate uptake studies for the inhibition of MCT1 were carried out on RBE4 (Rat Brain Endothelial 4) cells. The expression of MCT1 on these cells was confirmed by Western Blotting. The cells were plated approximately 20-24 hours before the experiment, the number of cells being approximately 10^5 cells per well. The test compounds were dissolved in DMSO and diluted 1000 times using a solution of HEPES buffer (pH 7.43) which consists of 3 μM ^14C-Lactate and 2 μM L-Lactate. The cells were washed twice with 500 μL of HEPES buffer and the cells were allowed to equilibrate for 15 minutes at 37° C. The HEPES buffer was removed and 250 μL of the test sample was added in triplicates. This was repeated for all the compounds, including the controls (CHC and DMSO). After 15 minutes, the compounds were removed from the well and 500 μL of ice-cold stop buffer (0.1 mM CHC solution in HEPES buffer) was added. The plate was kept on ice. Now, the HEPES buffer in one triplicate was removed and DMSO solution was added and immediately removed and ice-cold stop buffer was added. This was considered as “Zero”. One triplicate was left blank, which was used for protein assay after lysing the cells. The cells were washed twice with ice-cold HEPES buffer and then 250 μL of 0.1M NaOH in 5% Triton-X solution was added and the plate is kept on a shaker for 40 minutes to lyse the cells. 150 μL of the lysed cells was added into 4 mL of the scintillation fluid in a scintillation vial and scintillation count was obtained in disintegrations per minute (dpm). The percent inhibition values were calculated by taking DMSO as minimum. Concentration study (usually 9-12 dilutions) was done to determine the IC50 of each compound.

A short description of series [1]: Toxicity study in healthy ICR mice (body weight, WBC, RBC). In kind it is in vivo. The settings on record: for RBC ± SEM / WBC ± SEM: end of day 22. Here is the method: 60 ICR mice weighing ˜27 grams were randomly assigned into 5 groups (12 animals, 6 male and 6 female per group), one group being the control group without any drug administration (food only). The drugs were administered twice daily by P.O. or I.P. Group 1 and 3 were administered orally with 50 mg/Kg of Compound 20 and 18 mg/Kg of Compound 14 respectively. Group 2 and 4 mice were injected intraperitoneally with 6.67 mg/Kg of Compound 20 and 5.3 mg/Kg of Compound 14 (dissolved in water) respectively. The body weights of mice were recorded daily for 22 days. At the end of the 22nd day, 3 mice were randomly selected from each group and their blood samples were collected for detailed analysis of white blood cell (WBC) and red blood cell (RBC) counts. The mice were then euthanized with CO2.

The nature of series [2]: Toxicity study in BALB/c nude mice containing WiDr colorectal adenocarcinoma xenograft (body weight). The settings on record: BALB/c nude mice with WiDr xenograft, 8 mg/kg i.p. twice daily. Format: in vivo. Here is the method:
Female BALB/c nude mice weighing ˜20 g were taken and 5.0 10^6 WiDr cancer cells were implanted into their right flanks with a 1:1 mixture of 0.1 mL PBS and matrigel. The tumor was allowed to grow to a size of ˜150 cubic millimeters (14 days). The mice were randomly chosen by chance and assigned into 5 groups (6 mice per group), one group being the control group to which tumor was allowed to grow without any drug administration (food only). The drugs were administered twice daily by P.O. or I.P. Group 1 mice were administered orally with 50 mg/kg of Compound 20. Groups 2, 3 and 4 mice were treated via IP with 10 mg/kg Compound 20, 8 mg/kg of Compound 14 and 238 mg/kg CHC respectively. Body weight changes were recorded every two days for 3 weeks.

Sequence of MCT1 (P53987 whole entry): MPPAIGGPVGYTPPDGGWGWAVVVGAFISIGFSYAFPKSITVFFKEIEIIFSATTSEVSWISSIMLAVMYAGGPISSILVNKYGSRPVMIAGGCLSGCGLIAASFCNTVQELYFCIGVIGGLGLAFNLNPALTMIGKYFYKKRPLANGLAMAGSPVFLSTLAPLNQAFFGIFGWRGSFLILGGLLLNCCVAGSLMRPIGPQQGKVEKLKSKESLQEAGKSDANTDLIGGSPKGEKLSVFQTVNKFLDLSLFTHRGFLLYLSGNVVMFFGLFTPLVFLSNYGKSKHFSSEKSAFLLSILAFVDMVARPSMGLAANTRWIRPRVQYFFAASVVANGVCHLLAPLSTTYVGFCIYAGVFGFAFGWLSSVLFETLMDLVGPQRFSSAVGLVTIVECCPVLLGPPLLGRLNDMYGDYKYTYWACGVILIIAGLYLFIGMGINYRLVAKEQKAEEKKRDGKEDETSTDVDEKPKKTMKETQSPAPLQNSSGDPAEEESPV
Sequence of MCT1 (P26453 141-388 partner): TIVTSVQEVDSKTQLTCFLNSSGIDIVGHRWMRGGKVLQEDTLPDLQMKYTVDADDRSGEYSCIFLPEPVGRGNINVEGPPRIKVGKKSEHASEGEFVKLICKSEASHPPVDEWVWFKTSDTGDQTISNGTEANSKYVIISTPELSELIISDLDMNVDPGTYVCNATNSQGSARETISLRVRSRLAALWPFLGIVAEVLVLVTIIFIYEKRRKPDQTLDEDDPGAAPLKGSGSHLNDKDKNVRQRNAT

The IC50 is the concentration at which inhibition is half-maximal. High values mean lower potency, low ones higher potency. Consider `CCCCN(CCCC)c1ccc(/C=C(\C#N)C(=O)O)cc1` [Compound 4], for which the IC50 against MCT1 is 0.026 µM. Same read-out and setting: under `CCCCCN(CCCCC)c1ccc(/C=C(\C#N)C(=O)O)cc1` [Compound 5] stands 0.12 µM. Still for that read-out and setting: under `CCCCCCN(CCCCCC)c1ccc(/C=C(\C#N)C(=O)O)cc1` [Compound 6] stands 0.95 µM; under `C=CCN(CC=C)c1ccc(/C=C(\C#N)C(=O)O)cc1` [Compound 7], 0.088 µM. The same measure, in the same setting: under `C#CCN(CC#C)c1ccc(/C=C(\C#N)C(=O)O)cc1` [Compound 8] stands 0.34 µM; under `CC(C)CN(CC(C)C)c1ccc(/C=C(\C#N)C(=O)O)cc1` [Compound 9], 0.066 µM; under `N#C/C(=C\c1ccc(N(Cc2ccccc2)Cc2ccccc2)cc1)C(=O)O` [Compound 10], 0.043 µM. As for `N#C/C(=C\c1ccc(N2CCCC2)cc1)C(=O)O` [Compound 11], 0.064 µM corresponded to half-maximal inhibition on MCT1 (IC50).

Turning to `N#C/C(=C\c1ccc(N2CCCCC2)cc1)C(=O)O` [Compound 12], on MCT1, inhibition was half-maximal at 0.11 µM (IC50). The same measure, in the same setting: under `CCCN(CCC)c1ccc(/C=C(\C#N)C(=O)O)c(OC)c1` [Compound 13] stands 0.0095 µM. For `CCCCN(CCCC)c1ccc(/C=C(\C#N)C(=O)O)c(OC)c1` [Compound 14], on MCT1, the midpoint of inhibition, the IC50, lay at 0.0076 µM. The entries for the “Weight in grams (Day 0)” value in series [1] (5.3 mg/kg i.p. twice daily), in series [1] (18 mg/kg p.o. twice daily) and in series [2] (Day 0) were 27.05 grams, 27.04 grams and 22.08 grams, respectively. Besides, the “Weight in grams (Day 22)” value in series [1] (5.3 mg/kg i.p. twice daily) is on record as 32.53 grams; in series [1] (18 mg/kg p.o. twice daily), 32.60 grams; in series [2] (Day 22) it was 23.50 grams. Also, the “RBC ± SEM” value in series [1] (5.3 mg/kg i.p. twice daily) was 1.58 ± 0.05 10^13/L; in series [1] (18 mg/kg p.o. twice daily), 1.58 ± 0.02 10^13/L. The “WBC ± SEM” value is given as 5.80 ± 0.72 10^10/L in series [1] (5.3 mg/kg i.p. twice daily) and 4.57 ± 0.49 10^10/L in series [1] (18 mg/kg p.o. twice daily). Compound `CCCCCN(CCCCC)c1ccc(/C=C(\C#N)C(=O)O)c(OC)c1` [Compound 15] gave an IC50 against MCT1 of 0.023 µM.

For `C=CCN(CC=C)c1ccc(/C=C(\C#N)C(=O)O)c(OC)c1` [Compound 16], the IC50 against MCT1 amounted to 0.025 µM. Same read-out and setting: under `C#CCN(CC#C)c1ccc(/C=C(\C#N)C(=O)O)c(OC)c1` [Compound 17] stands 0.091 µM; under `COc1cc(N(CC(C)C)CC(C)C)ccc1/C=C(\C#N)C(=O)O` [Compound 18], 0.015 µM. On the same count and under the same terms, under `COc1cc(N(Cc2ccccc2)Cc2ccccc2)ccc1/C=C(\C#N)C(=O)O` [Compound 19] stands 0.019 µM. The same measure, in the same setting: under `COc1cc(N2CCCC2)ccc1/C=C(\C#N)C(=O)O` [Compound 21] stands 0.059 µM; under `CCCN(CCC)c1ccc2cc(C(=O)O)c(=O)oc2c1` [Compound 22], 0.299 µM. With `C=CCN(CC=C)c1ccc2cc(C(=O)O)c(=O)oc2c1` [Compound 23], the midpoint of inhibition against MCT1, the IC50, lay at 0.25 µM. Still for that read-out and setting: under `C#CCN(CC#C)c1ccc2cc(C(=O)O)c(=O)oc2c1` [Compound 24] stands 0.15 µM; under `O=C(O)c1cc2ccc(N(Cc3ccccc3)Cc3ccccc3)cc2oc1=O` [Compound 25], 0.048 µM. Turning to `O=C(O)c1cc2ccc(N3CCCC3)cc2oc1=O` [Compound 26], on MCT1, the IC50 is 0.22 µM. Still for that read-out and setting: under `O=C(O)c1cc2ccc(N(Cc3ccc(F)cc3)Cc3ccc(F)cc3)cc2oc1=O` [Compound 27] stands 0.2 µM. At MCT1, `O=C(O)c1cc2ccc(N(Cc3ccc(Cl)cc3)Cc3ccc(Cl)cc3)cc2oc1=O` [Compound 28] had an IC50 of 0.92 µM.

At MCT1, `O=C(O)c1cc2ccc(N(Cc3ccc4c(c3)OCO4)Cc3ccc4c(c3)OCO4)cc2oc1=O` [Compound 29] gave an IC50 of 0.11 µM.
